The record followed here is patent US20240239755A1, “SUBSTITUTED PYRIDAZINONES, SALTS OR N-OXIDES THEREOF AND THEIR USE AS HERBICIDALLY ACTIVE SUBSTANCES” (Bayer Aktiengesellschaft, priority 2021, published 2024).

Molecules are shown by their SMILES.

Holding throughout (assay type): in vivo
Experiment [1] relates to Kochia scoparia (KCHSC). Put plainly: Herbicidal pre-emergence action, 1280 g/ha (Table A4). As to conditions: visual grading after ca. 3 weeks vs untreated controls. Put shortly: (§1)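 Percent herbicidal effect was scored visually about 3 weeks after treatment relative to untreated pots, where 100% means dead plants and 0% equals control. Compounds (WP or EC) were sprayed onto covering soil of sown sandy loam pots in water containing 0.5% additive at 600 L/ha.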

The test system of experiment [2] is Kochia scoparia (KCHSC). Put plainly: Herbicidal post-emergence action, 320 g/ha, KCHSC. The conditions noted are these: visual grading after ca. 3 weeks. Put shortly: (§2)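 Visual herbicidal effect (%) relative to untreated plants, scored about 3 weeks after treatment; 100% means dead plants. Plants in sandy loam were sprayed at the single-leaf stage with formulated compound plus 0.5% additive in 600 litres water per hectare.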

In experiment [3] the test system is Stellaria media (STEME). Put plainly: Herbicidal post-emergence action, 1280 g/ha (Table B9). The conditions noted are these: visual assessment after ca. 3 weeks vs untreated controls. Put shortly: (§3)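 Post-emergence spray, single-leaf stage (2–3 wk after sowing, sandy loam); WP/EC in water + 0.5% additive, 600 L/ha. Greenhouse ~3 wk, then visual rating vs untreated: 0% = as control, 100% = plants dead.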

For experiment [4], the system named is Abutilon theophrasti (ABUTH). Description: Herbicidal post-emergence action, 1280 g/ha (Table B1). The conditions noted are these: visual assessment after ca. 3 weeks vs untreated controls. Put shortly: as §3
The test system of experiment [5] is Amaranthus retroflexus (AMARE). Put plainly: Herbicidal pre-emergence action, 320 g/ha, AMARE. The conditions noted are these: visual grading after ca. 3 weeks. Put shortly:
(§4)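 Percent herbicidal effect, graded by eye about 3 weeks after treatment relative to untreated pots (0% matching controls, 100% dead plants). Application of 320 g/ha onto soil covering freshly sown seeds, as aqueous suspension or emulsion plus 0.5% additive at 600 L/ha; pots kept in greenhouse.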

Experiment [6] has as its system Lolium rigidum (LOLRI). Description: Herbicidal pre-emergence action, 1280 g/ha (Table A5). As to conditions: visual grading after ca. 3 weeks vs untreated controls. Put shortly: as §1
Experiment [7] relates to Kochia scoparia (KCHSC). Description: Herbicidal post-emergence action, 1280 g/ha (Table B4). The conditions noted are these: visual assessment after ca. 3 weeks vs untreated controls. Put shortly: as §3
Experiment [8] relates to Matricaria inodora (MATIN). Description: Herbicidal pre-emergence action, 1280 g/ha (Table A6). As to conditions: visual grading after ca. 3 weeks vs untreated controls. Put shortly: as §1
Experiment [9] deals with Stellaria media (STEME). Description: Herbicidal pre-emergence action, 320 g/ha, STEME. The conditions noted are these: visual grading after ca. 3 weeks. Put shortly: as §4
Experiment [10] concerns Abutilon theophrasti (ABUTH). Put plainly: Herbicidal post-emergence action, 320 g/ha, ABUTH. The conditions noted are these: visual grading after ca. 3 weeks. Put shortly: as §2
Experiment [11] relates to Stellaria media (STEME). Description: Herbicidal pre-emergence action, 1280 g/ha (Table A9). The conditions noted are these: visual grading after ca. 3 weeks vs untreated controls. Put shortly:
as §1

Experiment [12] deals with Veronica persica (VERPE). Description: Herbicidal post-emergence action, 1280 g/ha, VERPE. As to conditions: visual grading vs untreated controls. Put shortly:
(§5)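 Visual rating ~3 weeks after treatment: 0% equals untreated control, 100% means plants died. Treatment was a 1280 g/ha foliar spray (600 L water/ha, 0.5% additive, WP or EC formulation) applied to single-leaf-stage plants grown 2–3 weeks in sandy loam under controlled conditions.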

The test system of experiment [13] is Poa annua (POAAN). Put plainly: Herbicidal pre-emergence action, 320 g/ha, POAAN. As to conditions: visual grading after ca. 3 weeks. The text has this: (§6) Seeds of mono- and dicotyledonous weed plants were sown in plastic pots (double sowings with one species of mono- and one species of dicotyledonous weed plants per pot), in sandy loam, and covered with soil. The compounds according to the invention, formulated in the form of wettable powders (WP) or as emulsifiable concentrates (EC), were applied to the surface of the covering soil as an aqueous suspension or as an emulsion, with the addition of 0.5% of an additive, at an application rate of 600 litres of water per hectare (converted). Following treatment, the pots were placed in a greenhouse and kept under optimum growth conditions for the test plants. The visual grading of the damage to the test plants was carried out after ca. 3 weeks in comparison to untreated controls (herbicidal effect in percent (%): 100% effect=plants have died, 0% effect=as control plants).
Tables C1 to C6 below, show the effects of selected compounds of the general formula (I) according to Table 1 on various harmful plants using an application rate corresponding to 320 g/ha obtained by the experimental procedure mentioned above.

Experiment [14] has as its system Poa annua (POAAN). Description: Herbicidal pre-emergence action, 1280 g/ha (Table A7). As to conditions: visual grading after ca. 3 weeks vs untreated controls. Put shortly: as §1
The subject of experiment [15] is Abutilon theophrasti (ABUTH). Put plainly: Herbicidal pre-emergence action, 1280 g/ha (Table A1). As to conditions: visual grading after ca. 3 weeks vs untreated controls. Put shortly: as §1
For experiment [16], the system named is Setaria viridis (SETVI). Put plainly: Herbicidal pre-emergence action, 1280 g/ha (Table A8). The conditions noted are these: visual grading after ca. 3 weeks vs untreated controls. Put shortly: as §1
Experiment [17] relates to Matricaria inodora (MATIN). Description: Herbicidal post-emergence action, 1280 g/ha (Table B6). The conditions noted are these: visual assessment after ca. 3 weeks vs untreated controls. Put shortly: as §3
Experiment [18] deals with Lolium rigidum (LOLRI). Put plainly: Herbicidal post-emergence action, 320 g/ha, LOLRI. The conditions noted are these: visual grading after ca. 3 weeks. Put shortly: as §2
For experiment [19], the system named is Lolium rigidum (LOLRI). Put plainly: Herbicidal post-emergence action, 1280 g/ha (Table B5). As to conditions: visual assessment after ca. 3 weeks vs untreated controls. Put shortly:
as §3

The test system of experiment [20] is Stellaria media (STEME). Description: Herbicidal post-emergence action, 320 g/ha, STEME. The conditions noted are these: visual grading after ca. 3 weeks. Put shortly: as §2
The subject of experiment [21] is Amaranthus retroflexus (AMARE). Description: Herbicidal pre-emergence action, 1280 g/ha (Table A11). As to conditions: visual grading after ca. 3 weeks vs untreated controls. Put shortly: as §1
Experiment [22] concerns Amaranthus retroflexus (AMARE). Put plainly: Herbicidal post-emergence action, 1280 g/ha, AMARE. As to conditions: visual grading vs untreated controls. Put shortly: as §5
For experiment [23], the system named is Amaranthus retroflexus (AMARE). Put plainly: Herbicidal post-emergence action, 320 g/ha, AMARE. As to conditions: visual grading after ca. 3 weeks. Put shortly: as §2
In experiment [24] the test system is Veronica persica (VERPE). Put plainly: Herbicidal post-emergence action, 320 g/ha, VERPE. The conditions noted are these: visual grading after ca. 3 weeks. Put shortly: as §2
Experiment [25] relates to Kochia scoparia (KCHSC). Put plainly: Herbicidal pre-emergence action, 320 g/ha (Table C1). As to conditions: visual grading after ca. 3 weeks vs untreated controls.
Source text: as §6, with “plants). Tables C1 to C6 below, show the effects of selected compounds of the general formula (I) according to Table 1 on various harmful plants using an application rate corresponding to 320 g/ha obtained by the experimental procedure mentioned above.” for “plants).”

Experiment [26] relates to Veronica persica (VERPE). Put plainly: Herbicidal pre-emergence action, 1280 g/ha (Table A10). As to conditions: visual grading after ca. 3 weeks vs untreated controls.
Source text: as §6, with “plants). Tables A1 to A11 below, show the effects of selected compounds of the general formula (I) according to Table 1 on various harmful plants and an application rate corresponding to 1280 g/ha obtained by the experimental procedure mentioned above.” for “plants).”

Experiment [27] relates to Echinochloa crus-galli (ECHCG). Description: Herbicidal post-emergence action, 1280 g/ha (Table B3). As to conditions: visual assessment after ca. 3 weeks vs untreated controls. The text has this:
Seeds of mono- and dicotyledonous weed plants were sown in plastic pots (double sowings with one species of mono- and one species of dicotyledonous weed plants per pot), in sandy loam, covered with soil and grown under controlled growth conditions. 2 to 3 weeks after sowing, the test plants were sprayed in the single-leaf stage. The compounds according to the invention, formulated in the form of wettable powders (WP) or as emulsifiable concentrates (EC), were sprayed onto the green plant parts as an aqueous suspension or as an emulsion, with the addition of 0.5% of an additive, at an application rate of 600 litres of water per hectare (converted). The test plants were placed in the greenhouse for ca. 3 weeks under optimum growth conditions, and then the effect of the preparations was assessed visually in comparison with untreated controls (herbicidal effect in percent (%): 100% effect=plants have died, 0% effect=as control plants). Tables B1 to B11 below, show the effects of selected compounds of the general formula (I) according to Table 1 on various harmful plants using an application rate corresponding to 1280 g/ha obtained by the experimental procedure mentioned above.

Experiment [28] deals with Lolium rigidum (LOLRI). Put plainly: Herbicidal pre-emergence action, 320 g/ha (Table C2). As to conditions: visual grading after ca. 3 weeks vs untreated controls. Put shortly: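 Herbicidal effect was graded by eye roughly 3 weeks after treatment, from 0% (as control) to 100% (dead plants). Weed seeds sown in sandy loam were covered and sprayed on the soil surface with WP/EC suspensions or emulsions, 0.5% additive, 600 L water/ha, then kept in a greenhouse.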

Experiment [29] relates to Matricaria inodora (MATIN). Put plainly: Herbicidal pre-emergence action, 320 g/ha (Table C3). As to conditions: visual grading after ca. 3 weeks vs untreated controls.
Source text: as §6, with “plants). Tables C1 to C6 below, show the effects of selected compounds of the general formula (I) according to Table 1 on various harmful plants using an application rate corresponding to 320 g/ha obtained by the experimental procedure mentioned above.” for “plants).”

In experiment [30] the test system is Setaria viridis (SETVI). Description: Herbicidal post-emergence action, 1280 g/ha (Table B8). As to conditions: visual assessment after ca. 3 weeks vs untreated controls. Put shortly:
as §3

Consider `CCOC(=O)Oc1c(C)nn(C)c(=O)c1Oc1ccccc1C1CC1` [Example I-012], for which the “herbicidal effect KCHSC” value in experiment [1], in experiment [2] and in experiment [7] was 100% each time. Further, the “herbicidal effect STEME” value is 100% in [3], 90% in [9], 100% in experiment [11] and 100% in [20]. Also, the “herbicidal effect ABUTH” value in experiment [4], in experiment [10] and in [15] was 100% in each case. Moreover, the “herbicidal effect AMARE” value in experiment [5] was found to be 100%; in [21], 100%; in experiment [22] it was 90%. The “herbicidal effect LOLRI” value in experiment [6], in experiment [18] and in experiment [19] was 100% throughout. In addition, the “herbicidal effect MATIN” value in experiment [8] came out at 90%; in [17] it was 100%. Moreover, the “herbicidal effect VERPE” value in experiment [12] turned out to be 90%. Also, the “herbicidal effect POAAN” value in [13] and in [14] was 90% each time. Moreover, the “herbicidal effect SETVI” value in experiment [16] is given as 100%.

As to `Cc1nn(C)c(=O)c(Oc2cc(F)c(F)cc2C2CC2)c1OC(=O)C(C)C` [Example I-102], the “herbicidal effect KCHSC” value in experiment [1] is recorded as 90%; in experiment [7] it was 100%; in [25], 90%. Further, the “herbicidal effect AMARE” value is on record as 90% in [23], 100% in [21] and 100% in experiment [22]. For the same compound, the “herbicidal effect VERPE” value in experiment [24] and in experiment [12] was 90% in each case. Moreover, the “herbicidal effect STEME” value in [3] is 100%; in experiment [9], 90%; in experiment [11] it was 100%; in [20], 90%. In addition, the “herbicidal effect ABUTH” value in experiment [4] came out at 100%. For the same compound, the “herbicidal effect LOLRI” value in experiment [6] and in [19] was 90% each time. Besides, the “herbicidal effect MATIN” value in [8] and in [17] was 100% each time.

Consider `CC(=O)Oc1c(C)nn(C)c(=O)c1Oc1ccccc1C(F)(F)F` [Example I-030], for which the “herbicidal effect VERPE” value in [26] and in [12] was 90% in each case. The “herbicidal effect KCHSC” value in experiment [1] and in experiment [7] was 90% throughout. Further, the “herbicidal effect AMARE” value in experiment [23] came to 90%; in [5], 90%; in experiment [21], 100%; in experiment [22], 90%. Moreover, the “herbicidal effect ECHCG” value in experiment [27] was found to be 90%. In addition, the “herbicidal effect STEME” value is listed as 100% in experiment [3], 100% in [9], 100% in [11] and 90% in [20]. In addition, the “herbicidal effect LOLRI” value in experiment [28] was 90%; in experiment [6], 100%; in experiment [18], 90%; in experiment [19] it was 90%. Also, the “herbicidal effect ABUTH” value in experiment [4] amounted to 100%; in experiment [10], 90%. In addition, the “herbicidal effect MATIN” value in [29] came to 100%; in experiment [8] it was 100%; in [17], 90%. Further, the “herbicidal effect SETVI” value in experiment [30] stood at 90%.

As for `Cc1nn(C)c(=O)c(Oc2ccc(Cl)cc2)c1O` [Example I-002], the “herbicidal effect KCHSC” value in [1] and in experiment [25] was 90% in each case.
